This passage reports IC50 and tumor growth results from EP2948187B1, “HETEROCYCLES AND THEIR RADIOLABELED ANALOGS USEFUL AS COX-1 SELECTIVE INHIBITORS” (Universita' Degli Studi di Bari, priority 2013, dated 2014).

Assay [1] deals with COX-1 (Ovis aries, UniProt P05979). The assay is described as follows: COX-1 inhibition assay (as disclosed in Chem. Med. Chem. 2012, 7, 629-641). It is filed as biochemical.
Experimental: The biological assays were carried out as disclosed in Chem. Med. Chem. 2012, 7, 629 - 641.
Assay [2] relates to ovarian surface epithelial cells allografted in female nude mice. The settings on record: after treatment with SC-560, recent reports; cited from earlier work.

A word on the IC50: it is the concentration needed to halve the response being measured.

Sequence of COX-1 (P05979 25-600): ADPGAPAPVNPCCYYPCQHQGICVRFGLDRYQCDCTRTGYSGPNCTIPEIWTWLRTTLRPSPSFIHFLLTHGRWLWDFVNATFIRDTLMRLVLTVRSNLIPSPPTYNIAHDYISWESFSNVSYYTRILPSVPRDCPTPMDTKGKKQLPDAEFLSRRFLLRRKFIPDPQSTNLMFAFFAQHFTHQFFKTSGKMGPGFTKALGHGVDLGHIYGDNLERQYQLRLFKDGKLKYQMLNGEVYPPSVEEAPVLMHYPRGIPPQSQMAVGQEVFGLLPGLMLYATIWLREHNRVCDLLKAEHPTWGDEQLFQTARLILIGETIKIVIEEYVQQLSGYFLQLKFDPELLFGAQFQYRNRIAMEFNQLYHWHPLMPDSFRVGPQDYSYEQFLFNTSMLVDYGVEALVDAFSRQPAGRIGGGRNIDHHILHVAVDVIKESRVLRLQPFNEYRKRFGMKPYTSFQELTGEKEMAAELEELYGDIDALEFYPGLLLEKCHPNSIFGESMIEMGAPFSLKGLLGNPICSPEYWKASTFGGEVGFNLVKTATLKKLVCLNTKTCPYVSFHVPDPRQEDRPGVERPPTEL

The molecule `COc1ccc(-c2noc(C)c2-c2ccc(OC)cc2)cc1` [(III), 3,4-bis(4-methoxyphenyl)-5-methylisoxazole] showed an IC50 in assay [1] of 76 nM. This lies in the double-digit nanomolar range.
Consider `COc1ccc(-n2nc(C(F)(F)F)cc2-c2ccc(Cl)cc2)cc1` [SC-560], for which the tumor growth entry in assay [2] is reported as “significantly reduction of tumor growth”.
